Laboratory results as given in patent publication US11617733B2, “Bicyclic compound and use thereof for medical purposes” (ONO PHARMACEUTICAL CO., LTD., priority 2009, dated 2023).

Tests used:
male dog (TOYO Beagle) = experiment: Intraocular pressure lowering action in dog after ocular instillation; format: in vivo
Experimental: (2-1) Intraocular Pressure Lowering Action
To one eye of a male dog (TOYO Beagle) which had been sufficiently acclimated in advance was ocular-instilled 30 μL of each test compound (compound of Example 16 (35), compound of Example 16 (3) and compound of Example 16(25)) which had been adjusted with a base (containing citrate buffer pH 6.5, 0.5% polysorbate 80, 1% propylene glycol, 0.01% benzalkonium chloride) to 0.01% (w/v) or 0.001% (w/v), respectively. The other eye was not treated. As a positive control compound, latanoprost which is the known compound was used.
Thereafter, an ocular surface anesthetic (Benoxil eye drops 0.4%, Santen Pharmaceutical Co., Ltd.) was subjected to ocular instillation to locally anesthetize eyes, and an intraocular pressure of each test compound before ocular instillation and after 2, 4, 6, 8, and 24 hours from ocular instillation was measured. An intraocular pressure was measured using a pneumatic applanation flat tonometer (Model 30 Classic, REICHERT). An intraocular pressure lowering rate (%) was calculated by the following equation. Intraocular pressure lowering rate (%)=(intraocular pressure value before ocular instillation−intraocular pressure value at each point)/(intraocular pressure value before ocular instillation)×100 [Mathematic 1]

[1] = system: male rabbit (NewZealandWhite); experiment: Aqueous humor protein concentration in rabbit after ocular instillation; format: in vivo; conditions: ocular instillation 30 μL, 0.1% (w/v), 0-8 hours
Experimental: (2-2) Assessment of Ocular Stimulating Property and Aqueous Humor Protein Concentration
To one eye of a male rabbit (NewZealandWhite, 2.0 to 3.0 kg) was ocular-instilled 30 μL of the compound of Example 16 (35), the compound of Example 16 (3) and the compound of Example 16 (25) which had been adjusted to 0.1% (w/v) with a base (containing citrate buffer pH 6.5, 0.5% polysorbate 80, 1% propylene glycol, 0.01% benzalkonium chloride), respectively. Thereafter, an aqueous humor in anterior chamber after 0, 1, 2, 4, 6 and 8 hours from ocular instillation was collected, and a protein concentration in the humor was measured. As a comparative compound, the aforementioned methyl ester of the compound of Example 12 described in Patent Literature 2 (i.e. compound of Example 10 described in Patent Literature 2) (hereinafter, abbreviated as Comparative Compound B in some cases) was used.
Regarding any test compound, a dose until a dissolution limit (150 to 1000 μg/mL) was administered and action of each active body was assessed.

Row | SMILES | Intraocular pressure lowering action compared with positive control latanoprost (in words) (male dog (TOYO Beagle)) | Action on protein concentration in aqueous humor (in words) [1]
1 | CC(C)OC(=O)CCC[C@H]1CC[C@@H]2[C@@H](/C=C/[C@@H](O)COc3cc(F)ccc3F)[C@H](O)C[C@@H]2OC1 [Example 16 (25), 2-Propanyl 4-{(3S, 5aR, 6R, 7R, 8aS)-6-[(1E, 3R)-4-(2,5-difluorophenoxy)-3-hydroxy-1-buten-1-yl]-7-hydroxyoctahydro-2H-cyclopenta[b]oxepin-3-yl}butanoate] | stronger intraocular pressure lowering action as compared with latanoprost | no action of raising a protein concentration in an aqueous humor
2 | CCOC(=O)CCC[C@H]1CC[C@@H]2[C@@H](/C=C/[C@@H](O)COc3ccccc3)[C@H](O)C[C@@H]2OC1 [Example 16 (35), Ethyl 4-{(3S, 5aR, 6R, 7R, 8aS)-7-hydroxy-6-[(1E, 3R)-3-hydroxy-4-phenoxy-1-buten-1-yl]octahydro-2H-cyclopenta[b]oxepin-3-yl}butanoate] | stronger intraocular pressure lowering action as compared with latanoprost | no action of raising a protein concentration in an aqueous humor
